According to article PMC10830684, “Effect of Oregon grape root extracts on P-glycoprotein mediated transport in in vitro cell lines” (Journal of Pharmacy & Pharmaceutical Sciences, 2024):

Experiments:
[1] = tested on: P-gp; design: method as in PMID 12434406; details: Caco-2 cells; seven day pretreatment; 30 µM; cited from earlier work
[2] = tested on: Caco-2 cells; assay: Transepithelial transport of berberine and berbamine across Caco-2 cells; format: in vitro ADME, human; details: 100 µM; Caco-2 cells
Experimental: Transport of ^3H-CsA and ^3H-digoxin (0.5 µM and 1.0 µCi), MDR1 substrates, were performed using transport buffer consisting of HBSS with 10 mM HEPES and 25 mM D-glucose at a pH of 6.8 for the apical (A) compartment and 7.4 for the basolateral (B) compartment. Experiments were performed at 37°C, 5% CO2, and 95% relative humidity. Cells in the Transwell® inserts were washed 3 times with a transport buffer and allowed to equilibrate for 30 min prior to the addition of test compounds. […] To evaluate the efflux mechanism involved with berberine and berbamine, 100 µM of berberine and berbamine were placed in the donor chamber and 100 µL samples were collected in the receiver chamber at 0, 0.5, 1.0, 1.5, 2.0, 2.5, and 3.0 h and analyzed by HPLC. Each experiment was performed in duplicate and repeated for each condition tested. For experiments performed in “non-sink” conditions, 100 µL aliquots were taken from the donor and receiver chambers at the beginning and from the receiver chamber at 0.5, 1.0, 1.5, 2.0, 2.5, and 3.0 h. An equal volume of 100 µL was replaced in the chamber at each sample time point. “Non-sink” conditions were performed when less than 10% of compound is transported across cells during the transport experiment such that a concentration gradient was always present. For the “sink” condition experiments, the entire receiver volume was replaced at each time interval and a 100 µL aliquot was taken from the receiver volume for scintillation counting. A 100 µL sample was taken from the donor chamber at 3 h in order to calculate the mass balance of radioactivity to determine if adsorption to the cell culture transport apparatus had occurred. Each sample was placed in 0.9 mL of scintillation fluor (Cytoscint ES, ICN, Cosa Mesa, CA, USA) and read on a Beckman LS 6500 (Palo Alto, CA, USA) scintillation counter for ^3H activity. For berberine and berbamine analysis, 100 µL aliquot was assayed by HPLC.
The apparent permeability (Papp) was calculated using the following equation [40]: Papp=dQ/dt×1/A×C0
Where A is the surface area of the monolayer (4.71 cm^2) and C0 is the initial concentration of radiolabeled probe substrate in the donor compartment. dQ/dt is the slope of the steady-state rate constant. The efflux ratio was determined by dividing the Papp in the B to A direction by the Papp in the A to B direction: Efflux ratio=PappB to A/PappA to B
A Waters 2690 separations module with a Model 996 photodiode array detector with the Millennium 32 Chromatograph Manager version 3.0 software (Waters Corporation, Milford, MA, USA) was used for HPLC analysis. […] All the standards and samples were filtered (0.2 µm) prior to injection. Ten µL was injected onto a 250 × 4.6 mm i.d., […], Zorbax Eclipse X DB-C18 Column (Agilent Technologies, Palo Alto, CA, USA) with a 3.9 × 20 mm i.d. Symmetry® C18 guard column, with an isocratic mobile phase of 32:68 acetonitrile:buffer. The buffer consisted of 30 mM ammonium acetate and 14 mM TEA and was adjusted to pH 4.85 with acetic acid. A flow rate of 1 mL/min and UV absorption at 254 nm was used for analysis. The retention time of berberine and berbamine was 7.84 min and 3.03 min, respectively. The cumulative amount of transport was determined using the corresponding peak area for berberine or berbamine. The cumulative amount of berberine or berbamine transported across the cell membrane was evaluated as a functionof time. The Papp was calculated by the following equation: […]

[3] = target: P-glycoprotein (MDCKII-MDR1 cells) (Homo sapiens, UniProt P08183); assay: Effect on 3H-CsA and 3H-digoxin transport in MDCKII-MDR1 cells; details: for Papp (B to A) of 3H-CsA: 0.5 µM 3H-CsA; for Papp (B to A) of 3H-digoxin: 0.5 µM 3H-digoxin
P-glycoprotein (MDCKII-MDR1 cells), sequence (P08183 whole entry): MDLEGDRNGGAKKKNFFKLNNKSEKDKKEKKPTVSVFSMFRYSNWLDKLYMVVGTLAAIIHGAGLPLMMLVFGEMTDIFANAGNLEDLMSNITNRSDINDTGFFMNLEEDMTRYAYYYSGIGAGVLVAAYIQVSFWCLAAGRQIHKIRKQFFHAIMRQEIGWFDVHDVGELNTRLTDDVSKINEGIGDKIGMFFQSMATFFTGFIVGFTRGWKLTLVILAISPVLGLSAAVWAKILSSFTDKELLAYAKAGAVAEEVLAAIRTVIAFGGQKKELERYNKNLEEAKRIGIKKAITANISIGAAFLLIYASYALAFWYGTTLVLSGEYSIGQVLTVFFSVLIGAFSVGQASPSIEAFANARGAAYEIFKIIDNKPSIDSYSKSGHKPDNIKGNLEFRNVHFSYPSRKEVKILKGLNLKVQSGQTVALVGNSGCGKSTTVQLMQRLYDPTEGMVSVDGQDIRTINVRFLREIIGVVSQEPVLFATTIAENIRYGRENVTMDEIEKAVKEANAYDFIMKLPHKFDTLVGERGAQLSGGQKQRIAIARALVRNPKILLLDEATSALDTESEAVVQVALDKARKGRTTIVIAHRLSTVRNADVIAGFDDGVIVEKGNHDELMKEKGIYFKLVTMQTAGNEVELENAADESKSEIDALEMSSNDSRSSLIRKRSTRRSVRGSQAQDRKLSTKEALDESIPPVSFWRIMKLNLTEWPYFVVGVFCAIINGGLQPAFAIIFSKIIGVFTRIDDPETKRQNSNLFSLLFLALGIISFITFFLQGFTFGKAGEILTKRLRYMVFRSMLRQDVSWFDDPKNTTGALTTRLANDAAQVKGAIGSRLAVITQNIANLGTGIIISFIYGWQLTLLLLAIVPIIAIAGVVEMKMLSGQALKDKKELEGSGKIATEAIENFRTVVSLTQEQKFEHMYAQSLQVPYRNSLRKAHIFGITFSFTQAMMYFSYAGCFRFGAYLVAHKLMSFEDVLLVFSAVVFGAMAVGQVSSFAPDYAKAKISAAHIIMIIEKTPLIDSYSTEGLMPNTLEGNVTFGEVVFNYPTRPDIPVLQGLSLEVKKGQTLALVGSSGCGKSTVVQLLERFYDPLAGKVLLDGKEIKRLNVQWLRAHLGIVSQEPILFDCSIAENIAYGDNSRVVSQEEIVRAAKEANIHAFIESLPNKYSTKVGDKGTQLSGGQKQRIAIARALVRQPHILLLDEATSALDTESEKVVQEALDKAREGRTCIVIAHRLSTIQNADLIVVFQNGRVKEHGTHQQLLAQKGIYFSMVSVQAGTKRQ

[4] = target: P-glycoprotein (Homo sapiens, UniProt P08183); assay: Effect on 3H-CsA and 3H-digoxin transport in Caco-2 cells; details: for Papp (B to A) of 3H-CsA / Papp (B to A) of 3H-digoxin: Caco-2; for Papp (B to A) of 3H-CsA: 0.5 µM 3H-CsA
P-glycoprotein, sequence (P08183 whole entry): as above

[5] = tested on: Caco-2 cells; assay: MTT cytotoxicity assay in Caco-2 cells; format: cell-based, human; details: for MTT assay: 4 hours exposure
Text: We initiated cytotoxicity experiments with the Caco-2, MDCKII-MDR1 and MDCKII-wild type cells on Day 7 (Caco-2) and Day 4 (MDCKII-MDR1 and MDCKII-wild type) after the initial plating of the cells at 2.5 × 10^3 cells/well in 48-well plates (Becton Dickinson, Franklin Lakes, NJ, USA). See details of preparation for the cytotoxicity experiments in Supplementary Material.
We initiated cytotoxicity experiments with the Caco-2, MDCKII-MDR1 and MDCKII-wild type cells on Day 7 (Caco-2) and Day 4 (MDCKII-MDR1 and MDCKII-wild type) after the initial plating of the cells at 2.5x10^3 cells/well in 48-well plates (Becton Dickinson, Franklin Lakes, NJ, USA). Stock solutions of 10 mM berberine or berbamine were prepared by dissolving the compounds in DMSO (berberine) or distilled water (berbamine).
The LDH enzymatic activities were assayed using the method of Mitchell et al.(1). […] Enzyme leakage into the medium was expressed as the percentage of total cellular LDH. The MTT (3-(4,5-dimethythiazole-2yl)-2,5-diphenyl tetrazolium bromide) reduction assay was done according to Mosmann (2). This assay was conducted immediately with the same cells used in the LDH study. The results were expressed as the percentage of negative controls.

[6] = design: method as in PMID 16086103; details: renal-transplant patients; co-administration of 200 mg berberine three times a day for 12 days; cited from earlier work

COc1ccc2cc3[n+](cc2c1OC)CCc1cc2c(cc1-3)OCO2.[Cl-] [Berberine, Berberine chloride]
increase of the efflux of daunomycin [1]: 1.4 fold
Papp A to B direction [2]: 2.35 ×10⁻⁶ cm/s
Papp B to A direction [2]: 10.4 ×10⁻⁶ cm/s
fold increase of Papp B to A compared with A to B [2]: ~4 fold
transport in the A to B direction [2]: 0.18 nmol/min
transport in the B to A direction [2]: 1.45 nmol/min
Papp (B to A) of 3H-CsA ([3]; 10 µM compound): 5.34 ± 1.56 x 10^−6 cm/s
Papp (B to A) of 3H-digoxin ([3]; 10 µM compound): 1.56 ± 0.43 x 10^−6 cm/s
Papp (B to A) of 3H-CsA ([3]; 30 µM compound): 5.17 ± 0.92 x 10^−6 cm/s
Papp (B to A) of 3H-digoxin ([3]; 30 µM compound): 1.57 ± 0.81 x 10^−6 cm/s
Papp (B to A) of 3H-CsA ([4]; 10 µM compound): 1.79 ± 0.16 x 10^−6 cm/s
Papp (B to A) of 3H-digoxin ([4]; 10 µM compound, 0.5 µM 3H-digoxin): 2.37 ± 0.26 x 10^−6 cm/s
Papp (B to A) of 3H-CsA ([4]; 30 µM compound): 1.52 ± 0.14 x 10^−6 cm/s
Papp (B to A) of 3H-digoxin ([4]; 30 µM compound, 0.5 µM 3H-digoxin): 2.26 ± 0.29 x 10^−6 cm/s
Papp (B to A) of 3H-CsA ([4]; 100 µM compound): 1.60 ± 0.45 x 10^−6 cm/s
Papp (B to A) of 3H-digoxin ([4]; 100 µM compound, 0.5 µM 3H-digoxin): 2.93 ± 0.07 x 10^−6 cm/s
lowest concentration with significant decrease of B to A transport of 0.5 µM 3H-CsA ([4]; Caco-2 cells): 10 µM
effect on digoxin transport ([4]; Caco-2 cells, up to 30 μM, 0.5 µM 3H-digoxin): no significant effects
MTT assay ([5]; 0.03 µM): □ (%MTT reduction is not significantly decreased compared with the negative control)
MTT assay ([5]; 3.0 µM): □ (%MTT reduction is not significantly decreased compared with the negative control)
MTT assay ([5]; 100 µM): □ (%MTT reduction is not significantly decreased compared with the negative control)
MTT assay ([5]; 150 µM): 76.37 ± 2.13%
earliest time of significant increase in LDH leakage and decrease in MTT reduction ([5]; 150 µM, time-response 2, 4, 6, 8 hr, data not shown): 4 h
MTT assay ([5]; 300 µM): 58.25 ± 6.37%
MTT assay ([5]; 300 µM, listed as berberine): 58.25 ± 9.24%
increase of mean area under the curve of CsA [6]: 34.5%
